Where two headings read alike, the source gives them in different places.
Key:
[1] = biological target: T1, human mGlu5 (Homo sapiens, UniProt P41594); assay: IP1 functional assay, quisqualate-stimulated HEK293 cells expressing mGlu5; format: cell-based; set-up: expressed in transfected cells; host or cells: HEK293 cells, transient electroporation; glutamate transporter EAAC1 co-transfected; conditions: for functional activity in IP1 assay: agonist (quisqualate)-induced mGlu5-dependent IP1 production
Procedure: Figure 3 Evaluation of compounds F1 and F2 in functional assays. Representative dose–response curve of compounds (a) F1 and (b) F2 in an IP1 functional assay. […] Each point was performed in triplicate and is shown as a mean ± SEM of 3–5 independent experiments.
HEK293 cells were cultured in Dulbecco’s modified Eagle’s medium (DMEM) supplemented with 10% fetal bovine serum (FBS) and were maintained at 37 °C in a humidified atmosphere with 5% CO2. Transient transfection was performed using electroporation in a volume of […] with […] of plasmid encoding SNAP-tag human mGlu5, […] plasmid encoding for the glutamate transporter EAAC1 plasmids, and 10 million of HEK293 cells in electroporation buffer (50 mM K2HPO4, 20 mM CH3COOK, and 20 mM KOH, pH 7.4). After electroporation (250 V, 0.5 mF, Bio–Rad Gene Pulser electroporator; Bio-Rad Laboratories, Hercules, CA), cells were resuspended in 10 mL of DMEM supplemented with 10% FBS and seeded for 24 h into black, clear-bottom 96-well culture plates (Greiner Bio-one), pretreated with Poly-L-Ornithine 1X, at a density of 100,000 cells per well. Following 24 h of transfection, HEK293 cells were incubated for 2 h with glutamate-free DMEM GlutaMAX-I (Life Technologies). The IP1 accumulation assay kit (Cisbio Bioassays, PerkinElmer) was used for the direct quantitative measurement of IP1. Cells were stimulated by quisqualate at EC80 alone and with various concentrations of allosteric compounds, incubated for 30 min at 37 °C, 5% CO2. Cells were then lysed using the conjugate-lysis buffer mixed with the d2-labeled IP1 analogue and the Lumi4-terbium cryptate-labeled anti-IP1 antibody according to the manufacturer’s instructions. After a 1 h incubation at room temperature, the HTRF measurement was performed after excitation at 337 nm with 50 μs delay. Terbium cryptate fluorescence and tr-FRET signals were measured at 620 and 665 nm, respectively, using a PheraStar fluorimeter (BMG Labtech).

[2] = biological target: T1, human mGlu5; assay: Radioligand displacement assay (radiolabeled MPEP) on membranes of HEK293 cells stably expressing mGlu5; conditions: Ki
Procedure: Treated cells were harvested with PBS/2 mM EDTA and washed three times with ice-cold PBS and frozen at −80 °C. The frozen cell pellet was resuspended in membrane buffer (25 mM Tris/7.4, 250 mM sucrose, 2.5 mM EDTA, 2 ug/ml aprotinin, 0.5 ug/ml leupeptin and 200 nM PMSF) and homogenized with a polytron 20–30 s at maximum power. After centrifugation at 18,000 RPM for 30 min at 4 °C, the pellet was resuspended in ice-cold membrane buffer, hand-homogenized, and centrifuged as described above. This pellet was further resuspended in ice-cold membrane buffer. The protein content was measured using the Bradford method with bovine serum albumin as the standard. The membrane homogenate was frozen at −80 °C before use. After thawing, the membranes were washed once and resuspended in ice-cold 50 mM Tris–HCl, 0.9% NaCl, pH 7.4 buffer. All incubations were performed at room temperature. For the displacement binding experiments, 15 μg of membranes were incubated with 5 nM the radioligand in the presence of 10 varying concentrations of the test compound for 2 h at room temperature with shaking. At the end of the respective incubations, the suspension was filtered onto PerkinElmer GF/C glass fiber filters (1450–421) pre-soaked in 0.5% polyethyleneimine and washed rapidly four times using a Tomtec Harvester 96 Mach III cell harvester (Tomtec, Hamden, CT) with 5 mL of cold wash buffer (50 mM Tris–HCl, pH 7.4). The radioactivity trapped on the filters was measured after heat sealing the filters with MeltiLexTM A (PerkinElmer, 1450–441) in a 1450 MicroBeta TriLux counter (PerkinElmer). […] IC50 values were derived from the inhibition curve, and Ki values were calculated according to the Cheng-Prusoff equation of Ki = IC50/(1 + [L]/Kd),[61] where [L] is the concentration of radioligand and Kd is its dissociation constant at the receptor, derived from the saturation isotherm.

[3] = quisqualate 50 nM, mean ± SEM of 3–5 independent experiments, read-out: pIC50 (converted)
[4] = radioligand displacement, mean ± SEM of two experiments
[5] = analogues of F1, read-out: IC50

T1 sequence (P41594 21-1212): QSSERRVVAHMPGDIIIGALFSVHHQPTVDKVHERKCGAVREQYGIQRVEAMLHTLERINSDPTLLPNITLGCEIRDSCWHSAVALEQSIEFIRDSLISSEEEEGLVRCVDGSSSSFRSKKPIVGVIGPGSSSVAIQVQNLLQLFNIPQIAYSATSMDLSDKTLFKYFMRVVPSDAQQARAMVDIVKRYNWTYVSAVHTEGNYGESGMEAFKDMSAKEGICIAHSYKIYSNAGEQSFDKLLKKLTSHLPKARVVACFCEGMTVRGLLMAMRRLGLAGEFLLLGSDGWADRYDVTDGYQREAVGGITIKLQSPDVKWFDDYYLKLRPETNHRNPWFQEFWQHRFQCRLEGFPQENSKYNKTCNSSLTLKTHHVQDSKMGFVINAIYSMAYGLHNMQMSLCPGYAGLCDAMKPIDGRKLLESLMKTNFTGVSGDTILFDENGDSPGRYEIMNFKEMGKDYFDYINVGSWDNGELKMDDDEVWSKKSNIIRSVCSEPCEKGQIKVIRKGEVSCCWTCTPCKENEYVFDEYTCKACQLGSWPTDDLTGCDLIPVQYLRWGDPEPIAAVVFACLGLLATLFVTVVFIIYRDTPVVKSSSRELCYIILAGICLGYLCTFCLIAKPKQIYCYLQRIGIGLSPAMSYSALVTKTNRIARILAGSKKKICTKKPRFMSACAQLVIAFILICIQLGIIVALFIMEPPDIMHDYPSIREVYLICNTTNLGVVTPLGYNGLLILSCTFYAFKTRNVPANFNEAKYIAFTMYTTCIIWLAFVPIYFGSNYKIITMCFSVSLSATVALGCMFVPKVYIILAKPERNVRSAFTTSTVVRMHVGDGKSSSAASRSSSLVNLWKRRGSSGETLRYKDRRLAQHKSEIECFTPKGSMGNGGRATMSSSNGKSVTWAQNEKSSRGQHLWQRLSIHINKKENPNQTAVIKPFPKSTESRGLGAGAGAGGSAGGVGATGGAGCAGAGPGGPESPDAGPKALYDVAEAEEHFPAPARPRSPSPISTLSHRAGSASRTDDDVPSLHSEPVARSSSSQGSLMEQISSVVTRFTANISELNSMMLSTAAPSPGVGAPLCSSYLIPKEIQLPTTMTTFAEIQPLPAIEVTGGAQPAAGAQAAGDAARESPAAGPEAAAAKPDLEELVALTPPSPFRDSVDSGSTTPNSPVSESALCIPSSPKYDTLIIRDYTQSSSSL

| SMILES | functional activity in IP1 assay [1] | IC50 [1, 3] [nM] | Ki [2, 4] [nM] | Ki ([2]; resynthesized pure sample of F2, new binding assays) [nM] | IC50 [1, 5] [nM] |
| --- | --- | --- | --- | --- | --- |
| COc1cccc(CNc2cccc(C#N)c2)c1 [F1] | acted as NAMs | 6310 | 430 ± 10 | – | – |
| COCc1cccc(/C=C/c2cccc(C)n2)c1 [F2] | acted as NAMs | 7940 | 920 ± 120 | 550 | – |

Further lines, results first:

| functional activity in IP1 assay [1] | IC50 [1, 3] [nM] | Ki [2, 4] [nM] | Ki ([2]; resynthesized pure sample of F2, new binding assays) [nM] | IC50 [1, 5] [nM] | SMILES |
| --- | --- | --- | --- | --- | --- |
| inactive | – | – | – | > 100000 | N#Cc1cccc(NCc2ccccc2)c1 [FA1] |
| inactive | – | – | – | > 100000 | COc1cccc(CNc2ccccc2)c1 [FA2] |
| negatively modulated | – | 990 ± 150 | – | – | Cc1cnn(CC2CCCCN2C(=O)c2cc(-c3ccco3)on2)c1 (stereo not drawn) [L1] |
| negatively modulated | – | 1100 ± 100 | – | – | Cn1c(SCc2noc(-c3ccoc3)n2)nnc1-c1ccco1 [L2] |

From paper PMC9594040, “Structure-Based Discovery of Negative Allosteric Modulators of the Metabotropic Glutamate Receptor 5” (ACS Chemical Biology, 2022)
